Where two headings read alike, the source gives them in different places.
Experiments:
[1] = test system: platinum sensitive recurrent ovarian cancer; details: cited from earlier work
[2] = test system: OVCAR3 isogenic cell lines co-cultured with ECFCs; experiment: In-vivo Matrigel plug angiogenesis assay (micro-vessel density); design: species or system Athymic nude mice; details: 5 mg/kg IP; OVCAR3 cisplatin-resistant vs cisplatin-naïve cells, p-value 0.0024 (FIG. 44)
Experimental: All animal experiments were performed in conformity to UK Home Office Regulations (PPL2729) and with authorization from Queen's University Belfast Animal Welfare and Ethical Review Body (AWERB). Eight week-old male Athymic nude mice (Harlan Laboratories) were used. ECFC were inoculated at a high density of 2.45×106 and co-cultured with GFP-labelled OVCAR3 WT or GFP-labelled OVCAR3-CP at a density of 1.4×106. The GFP-labelled OVCAR3 WT and GFP-labelled OVCAR3-CP were seeded alone at a density of 1.4×106. Each condition was diluted in 10 μL of phenol red-free DMEM and re-suspended in 90 μL of growth factor-reduced Matrigel (Corning) and injected subcutaneously. After 8 days, mice were sacrificed under isoflurane anaesthesia using 31 gauge needless intraperitoneal (IP) administration of sodium pentobarbital at 200 mg/kg, and implants were removed and fixed in 4% formaldehyde overnight. Fixed Matrigel implants were then embedded in paraffin and 10 μm sections were prepared for staining. For 5 mg/Kg bevacizumab was administered IP once weekly for 14 days. Treatment was commenced on day 3. Mice were sacrificed after a 14-day treatment period as previously described.
IHC and immunofluorescence studies were conducted as previously describe. […] CD31 and αSMA stained vessels were then counted per high power field (200×) in three separate fields of three independent tumors from each group. […]

[3] = test system: platinum resistant epithelial ovarian cancer; details: cited from earlier work
[4] = test system: ovarian cancer; details: cited from earlier work
[5] = test system: ovarian cancer; details: cited from earlier work; remark: listed apart in the source

bevacizumab: recombinant humanised monoclonal antibody that binds to vascular endothelial growth factor A (VEGF-A)
Median progression free survival ([1]; bevacizumab + gemcitabine and carboplatin (placebo+GC 8.4 months)): 12.4 months | HR for progression free survival ([1]; vs placebo+GC, 95% CI 0.388-0.605, p<0.0001): 0.484 | MVD (micro-vessel density) [2]: less MVD | objective response rate (ORR) ([3]; bevacizumab and chemotherapy): 30.9% | overall survival ([3]; chemotherapy and bevacizumab arm (chemotherapy alone 13.3 months)): 16.6 months | PFS ([3]; patients treated with bevacizumab and paclitaxel): 9.6 months | Progression free survival ([3]; single agent chemotherapy and bevacizumab (chemotherapy alone 3.4 months)): 6.7 months | hazard ratio for progression free survival ([3]; vs chemotherapy alone, 95% CI 0.32-0.53, p<0.001): 0.42 | HR for overall survival ([3]; vs chemotherapy alone, 95% CI 0.69-1.14, not statistically significant): 0.89 | progression free survival (PFS) ([4]; standard therapy plus bevacizumab (standard therapy alone 20.3 months)): 21.8 months | hazard ratio (HR) for PFS ([4]; vs standard therapy, 95% CI 0.70 to 0.94, P=0.004): 0.81 | HR for PFS ([5]; bevacizumab cycle 2-6, 95% CI 0.795 to 1.040, P=0.16): 0.908 | HR for PFS ([5]; bevacizumab plus chemotherapy cycle 2-22, 95% CI 0.625 to 0.824, P<0.001): 0.717 | PFS ([5]; bevacizumab plus standard chemotherapy cycle 2-22 (control 10.3 months)): 14.1 months | PFS ([5]; bevacizumab with standard chemotherapy cycle 2-6 (control 10.3 months)): 11.2 months

From patent US20190127805A1, “GENE SIGNATURES FOR CANCER DETECTION AND TREATMENT” (ALMAC DIAGNOSTICS LIMITED, priority 2016, published 2019)
